This note sets out measurements from PMC4956214, “Identification of Host Insulin Binding Sites on Schistosoma japonicum Insulin Receptors” (PLoS ONE, 2016).

This assay has as its target T1, human insulin (Homo sapiens, UniProt P01308).
T1 construct: human insulin was biotinylated using a NHS-PEO4-biotin kit; biotin (chemical label, NHS-PEO4-biotin)
The assay can be described thus: Octet RED insulin binding assay (biotinylated human insulin on streptavidin biosensors). Conditions: Octet RED binding assays. A general note: BLI is a label-free optical method that tracks binding on a fibre tip over time.

T1 sequence (P01308 25-54 limits assumed): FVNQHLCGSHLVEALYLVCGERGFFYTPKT
T1 sequence (P01308 90-110 limits assumed): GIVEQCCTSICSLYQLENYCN

Turning to “GSLIIENGNCSGDLSTLLPNLTVIRNQVI [Analogue 2, peptide analogue from SjIR-1 L1 domain]”, the “Specific binding to human insulin” value was “no specific binding”. In the case of “IPRDASLPFLKEVTGSLLVYDTEGPEDL [Analogue 14, peptide analogue from SjIR-2 L1]” it was “no specific binding”; in that of “IGIDESESIIETIC [Analogue 7, peptide analogue from SjIR-1 FnIII-1]”, “no specific binding”; in that of “AYLIWIRILEDNPSEY [Analogue 16, peptide analogue from SjIR-2 FnIII-1]”, “no specific binding”.

In the case of “HEPKCHKVIEPITN [Analogue 8, peptide analogue from SjIR-1 FnIII-1]”, the “Specific binding to human insulin” value is on record as “no specific binding”. With “ILPVIVDEVVSLKSDTVG [Analogue 18, peptide analogue from SjIR-2 FnIII-2]”, the “Specific binding to human insulin” value was “no specific binding”.
